Reference: publication PMC7435711, “Synthesis and Pharmacological Effects of Diosgenin–Betulinic Acid Conjugates” (Molecules, 2020)
Where two headings read alike, the source gives them in different places.

How the values were obtained:
[1] = system: human cervical cancer (HeLa) cells; test: Cytotoxicity screening test, HeLa; settings: 72 h, read-out: Cytotoxicity IC50, HeLa
Procedure: (§1) Doxorubicin was used as a positive control.
(§2) The screening cell lines, T-lymphoblastic leukemia (CEM), cervical carcinoma (HeLa), breast carcinoma (MCF7), and human foreskin fibroblasts (BJ) were obtained from the American Type Culture Collection (Manassas, VA, USA). Cells were cultured in DMEM (Dulbecco’s Modified Eagle Medium, Sigma Aldrich, Darmstadt, Germany). Media used were supplemented with 10% fetal bovine serum, 2 mM L-glutamine, and 1% penicillin-streptomycin (all from Sigma Aldrich, Darmstadt, Germany). The cell lines were maintained under standard cell culture conditions at 37 °C and 5% CO2 in humid environment. Cells were subcultured twice or three times a week using the standard trypsinization procedure.

[2] = Cytotoxicity screening test, BJ reference cells; settings: human, BJ normal foreskin fibroblasts
Procedure: as §1, §2

[3] = system: human breast adenocarcinoma (MCF7) cells; test: Cytotoxicity screening test, MCF7; settings: MCF7, 72 h, read-out: Cytotoxicity IC50, MCF7
Procedure: as §1, §2

[4] = system: CEM, MCF7, HeLa, HCT 116 cancer cell lines and BJ fibroblasts; test: Cytotoxicity screening tests, summary statements over the cell line panel; settings: for IC50: Homo sapiens, 72 h, read-out: IC50 against all tested cell lines
Procedure: as §1, §2

[5] = system: human T-lymphoblastic leukemia (CEM) cells; test: Cytotoxicity screening test, CEM; settings: CCRF-CEM, 72 h, read-out: Cytotoxicity IC50, CEM
Procedure: as §1, §2

[6] = system: human colon carcinoma (HCT 116) cells; test: Cytotoxicity screening test, HCT 116; settings: HCT-116, 72 h, read-out: Cytotoxicity IC50, HCT 116
in vitro = settings: human
Procedure: as §1, §2

[7] = system: CEM, MCF7, HeLa, HCT 116 cancer cell lines and BJ fibroblasts
Procedure: as §1, §2

| Compound | IC50 [1] [µM] | IC50 at 72 h [2] [µM] | IC50 [3] [µM] | IC50 [4] [µM] | IC50 [5] [µM] | IC50 [6] [µM] | IC50 at 72 h (in vitro) [µM] | Cytotoxicity (in words) [7] | Cytotoxicity (in words) ([4]; summary over the tested cell lines) |
| --- | --- | --- | --- | --- | --- | --- | --- | --- | --- |
| C[C@@H]1CC[C@@]2(OC1)O[C@H]1C[C@H]3[C@@H]4CC=C5C[C@@H](O)CC[C@]5(C)[C@H]4CC[C@]3(C)[C@H]1[C@@H]2C [Compound 1, (3β,25R)-spirost-5-en-3-ol, reference compound] | > 50 | > 50 | > 50 | > 50 | > 50 | > 50 |  |  |  |
| C=C(C)[C@@H]1CC[C@]2(C(=O)O)CC[C@]3(C)[C@H](CC[C@@H]4[C@@]5(C)CC[C@H](OCc6cn(CCCCC(=O)O)nn6)C(C)(C)[C@@H]5CC[C@]43C)[C@@H]12 [Compound 6, (3β)-3-{[1-(4-Carboxybutyl)-1H-1,2,3-triazol-4-yl]methoxy}lup-20(29)-en-28-oic Acid] | > 50 |  | > 50 |  | > 50 | > 50 | > 50 | inactive |  |
| C=C(C)[C@@H]1CC[C@]2(C(=O)OCc3ccccc3)CC[C@]3(C)[C@H](CC[C@@H]4[C@@]5(C)CC[C@H](O)C(C)(C)[C@@H]5CC[C@]43C)[C@@H]12 [Compound 3, Benzyl (3β)-3-hydroxylup-20(29)-en-28-oate] | > 50 |  | > 50 | > 50 | > 50 | > 50 | > 50 | no cytotoxicity |  |
| C=C(C)[C@@H]1CC[C@]2(C(=O)OCc3ccccc3)CC[C@]3(C)[C@H](CC[C@@H]4[C@@]5(C)CC[C@H](OCc6cn(CCCCC(=O)O)nn6)C(C)(C)[C@@H]5CC[C@]43C)[C@@H]12 [Compound 5, 5-[4-({[(3β)-28-(Benzyloxy)-28-oxolup-20(29)-en-3-yl]oxy}-methyl)-1H-1,2,3-triazol-1-yl]pentanoic acid] | 20.3 ± 4.4 |  | 49.5 ± 0.7 |  | 15.8 ± 0.6 | 19.4 ± 2.1 | > 50 |  |  |
| COc1cccc2c1C(=O)c1c(O)c3c(c(O)c1C2=O)C[C@@](O)(C(=O)CO)C[C@@H]3O[C@H]1C[C@H](N)[C@H](O)[C@H](C)O1 [Doxorubicin, reference compound] |  | 0.278 ± 0.036 |  |  |  | 0.524 ± 0.177 |  |  |  |
| C=C(C)[C@@H]1CC[C@]2(C(=O)O)CC[C@]3(C)[C@H](CC[C@@H]4[C@@]5(C)CC[C@H](O)C(C)(C)[C@@H]5CC[C@]43C)[C@@H]12 [Compound 2, 3β-hydroxylup-20(29)-en-28-oic acid, reference compound] | > 50 | > 50 | > 50 | > 50 | > 50 | > 50 |  |  | no cytotoxicity |
| C#CCO[C@H]1CC[C@]2(C)[C@H]3CC[C@@H]4[C@H]5[C@H](C(=C)C)CC[C@]5(C(=O)OCc5ccccc5)CC[C@@]4(C)[C@]3(C)CC[C@H]2C1(C)C [Compound 4, Benzyl (3β)-3-(prop-2-yn-1-yloxy)lup-20(29)-en-28-oate] | > 50 |  | > 50 | > 50 | > 50 | > 50 | > 50 | no cytotoxicity |  |
| C=C(C)[C@@H]1CC[C@]2(C(=O)OCc3ccccc3)CC[C@]3(C)[C@H](CC[C@@H]4[C@@]5(C)CC[C@H](OCc6cn(CCCCC(=O)O[C@H]7CC[C@@]8(C)C(=CC[C@H]9[C@@H]%10C[C@@H]%11O[C@]%12(CC[C@@H](C)CO%12)[C@@H](C)[C@@H]%11[C@@]%10(C)CC[C@@H]98)C7)nn6)C(C)(C)[C@@H]5CC[C@]43C)[C@@H]12 [Compound 7, Benzyl (3β)-3-[(1-{5-oxo-5-[(3β,25R)-spirost-5-en-3-yloxy]pentyl}-1H-1,2,3-triazol-4-yl)methoxy]lup-20(29)-en-28-oate] | > 50 |  | > 50 |  | 6.5 ± 1.1 | > 50 | 46.2 ± 2.8 | medium to weak multifarious cytotoxicity |  |
| C=C(C)[C@@H]1CC[C@]2(C(=O)O)CC[C@]3(C)[C@H](CC[C@@H]4[C@@]5(C)CC[C@H](OCc6cn(CCCCC(=O)O[C@H]7CC[C@@]8(C)C(=CC[C@H]9[C@@H]%10C[C@@H]%11O[C@]%12(CC[C@@H](C)CO%12)[C@@H](C)[C@@H]%11[C@@]%10(C)CC[C@@H]98)C7)nn6)C(C)(C)[C@@H]5CC[C@]43C)[C@@H]12 [Compound 8, (3β)-3-[(1-{5-Oxo-5-[(3β,25R)-spirost-5-en-3-yloxy]pentyl}-1H-1,2,3-triazol-4-yl]methoxy}lup-20(29)-en-28-oic Acid] | > 50 |  | > 50 |  | > 50 | > 50 | > 50 |  |  |
